Reference: BindingDB's records for doi:10.1021/jm00096a017 (Kyowa Hakko Kogyo, 1992)

Experiment: Compound was tested for its binding affinity at Thromboxane A2/ Prostaglandin H2 receptor by measuring its ability to displace [3H]U-46619 from guinea pig platelets

Row | Compound | Ki
1 | Cc1cc2ncn(CCC3c4ccccc4COc4ccc(C(=O)O)cc43)c2cc1C (centres undefined) | 18 nM
2 | O=C(O)c1ccc2c(c1)/C(=C/Cn1cnc3ccc(C(O)c4ccccc4)cc31)c1ccccc1CO2 (centres undefined) | 17 nM
3 | O=C(O)c1ccc2c(c1)/C(=C/Cn1cnc3ccc(Cl)cc31)c1ccccc1CO2 | 15 nM
4 | O=C(O)c1ccc2c(c1)/C(=C\Cn1cnc3ccccc31)c1ccccc1CO2 | 15 nM
5 | COc1cc(OC)c2ncn(C/C=C3\c4ccccc4COc4ccc(C(=O)O)cc43)c2c1 | 88 nM
6 | Cc1cc2ncn(C/C=C3\c4cc(C(=O)O)ccc4COc4ccccc43)c2cc1C | 1300 nM
7 | Cc1cc2ncn(C/C=C3\c4ccccc4COc4ccc(CC(=O)O)cc43)c2cc1C | 63 nM
8 | O=C(O)c1ccc2c(c1)/C(=C/Cn1cnc3cc(C(=O)O)ccc31)c1ccccc1CO2 | 30 nM
9 | O=C(O)c1ccc2c(c1)/C(=C/Cn1cnc(-c3ccccc3)c1-c1ccccc1)c1ccccc1CO2 | 164 nM
10 | Cc1cccc2c1ncn2C/C=C1\c2ccccc2COc2ccc(C(=O)O)cc21 | 17 nM
11 | COc1ccc2ncn(C/C=C3\c4ccccc4COc4ccc(C(=O)O)cc43)c2c1 | 12 nM
12 | Cc1ccc2c(c1)ncn2C/C=C1\c2ccccc2COc2ccc(C(=O)O)cc21 | 15 nM
13 | O=C(O)c1ccc2c(c1)/C(=C/CNS(=O)(=O)c1ccccc1)c1ccccc1CO2 | 11 nM
14 | Cc1ccc2ncn(C/C=C3\c4ccccc4COc4ccc(C(=O)O)cc43)c2c1 | 23 nM
15 | Cc1cc2ncn(C/C=C3\c4ccccc4COc4cc(C(=O)O)ccc43)c2cc1C | 1800 nM
16 | O=C(O)c1ccc2c(c1)/C(=C/Cn1cnc3cc4ccccc4cc31)c1ccccc1CO2 | 280 nM
17 | Cc1cc2ncn(C/C=C3/c4ccccc4COc4ccc(C(=O)O)cc43)c2cc1C | 64 nM

Compounds with a lower Ki, results first:

Row | Ki | Compound
18 | 1.8 nM | O=C(O)c1ccc2c(c1)/C(=C/Cn1cnc3cc([N+](=O)[O-])ccc31)c1ccccc1CO2
19 | 6 nM | O=C(O)c1ccc2c(c1)/C(=C/Cn1cnc3cc(Cl)ccc31)c1ccccc1CO2
20 | 2.2 nM | O=C(O)c1ccc2c(c1)/C(=C/Cn1cnc3cc(C(F)(F)F)ccc31)c1ccccc1CO2
21 | 2.7 nM | O=C(O)c1ccc2c(c1)/C(=C/Cn1cnc3cc4c(cc31)OCO4)c1ccccc1CO2
22 | 0.91 nM | O=C(O)c1ccc2c(c1)/C(=C/Cn1cnc3cc(C(=O)NCc4ccccc4)ccc31)c1ccccc1CO2
23 | 3.2 nM | COc1ccc2c(c1)ncn2C/C=C1\c2ccccc2COc2ccc(C(=O)O)cc21
24 | 8.3 nM | O=C(O)c1ccc2c(c1)/C(=C/Cn1cnc3cc(F)ccc31)c1ccccc1CO2
25 | 6.1 nM | COc1cc(OC)c2c(c1)ncn2C/C=C1\c2ccccc2COc2ccc(C(=O)O)cc21
26 | 3.4 nM | COc1cc2ncn(C/C=C3\c4ccccc4COc4ccc(C(=O)O)cc43)c2cc1OC
27 | 3.6 nM | Cc1ccc2c(ncn2C/C=C2\c3ccccc3COc3ccc(C(=O)O)cc32)c1C
28 | 6.1 nM | O=C(O)c1ccc2c(c1)/C(=C/Cn1cnc3cc(C(O)c4ccccc4)ccc31)c1ccccc1CO2 (centres undefined)
29 | 2.7 nM | Cc1cc2ncn(C/C=C3\c4ccccc4COc4ccc(C(=O)O)cc43)c2cc1C [11-[2-(5,6-Dimethyl-benzoimidazol-1-yl)-ethylidene]-6,11-dihydro-dibenzo[b,e]oxepine-2-carboxylic acid (0.5H2O)]
